# According to patent US10377998B2, “CRISPR-CAS systems and methods for altering expression of gene products, structural information and inducible modular CAS enzymes” (The Broad Institute, Inc., priority 2013, dated 2019):
# Key:
# [1] = test system: Factor VII; settings: LNP siRNA systems containing these lipids, hepatocytes in vivo; cited from earlier work
# [2] = Double nicking indel formation with sgRNA pairs; type: cell-based; settings: substitution of Cas9n in double nicking, eukaryotic system
# Source text: Aspects of the invention relate to the expression of the gene product being decreased or a template polynucleotide being further introduced into the DNA molecule encoding the gene product or an intervening sequence being excised precisely by allowing the two 5′ overhangs to reanneal and ligate or the activity or function of the gene product being altered or the expression of the gene product being increased. In an embodiment of the invention, the gene product is a protein. Only sgRNA pairs creating 5′ overhangs with less than 8 bp overlap between the guide sequences (offset greater than −8 bp) were able to mediate detectable indel formation. […] Nonetheless, a pair of sgRNAs that will generate a 5′ overhang with Cas9n should in principle generate the corresponding 3′ overhang instead, and double nicking. […] Accordingly, in some embodiments, a recombination template is also provided. A recombination template may be a component of another vector as described herein, contained in a separate vector, or provided as a separate polynucleotide. In some embodiments, a recombination template is designed to serve as a template in homologous recombination, such as within or near a target sequence nicked or cleaved by a CRISPR enzyme as a part of a CRISPR complex. […]
Compound,gene silencing potency series [1],indel formation with sgRNA pair [2]
"CCCCC/C=C\C/C=C\CCCCCCCCC1(CCCCCCCC/C=C\C/C=C\CCCCC)OCC(CCN(C)C)O1 (centres unmarked) [DLinKC2-DMA, 1,2-dilinoleyl-4-(2-dimethylaminoethyl)-[1,3]-dioxolane]",DLinKC2-DMA>DLinKDMA>DLinDMA>>DLinDAP,
"CCCCC/C=C\C/C=C\CCCCCCCC(=O)OCC(CN(C)C)OC(=O)CCCCCCC/C=C\C/C=C\CCCCC (centres unmarked) [DLinDAP, 1,2-dilineoyl-3-dimethylammonium-propane]",DLinKC2-DMA>DLinKDMA>DLinDMA>>DLinDAP,
Cas9H840A: Cas9 with H840A mutation,,no indel formation is observed
"1,2-dilinoleyloxy-keto-N,N-dimethyl-3-aminopropane [DLinKDMA]",DLinKC2-DMA>DLinKDMA>DLinDMA>>DLinDAP,
"CCCCC/C=C\C/C=C\CCCCCCCCOCC(CN(C)C)OCCCCCCCC/C=C\C/C=C\CCCCC (centres unmarked) [DLinDMA, 1,2-dilinoleyloxy-3-N,N-dimethylaminopropane]",DLinKC2-DMA>DLinKDMA>DLinDMA>>DLinDAP,
